# Reference: patent publication US20220081435A1, “ANDROGEN RECEPTOR PROTEIN DEGRADERS” (THE REGENTS OF THE UNIVERSITY OF MICHIGAN, priority 2019, published 2022)
# How the values were obtained:
# AR protein = biological target: T1, AR protein (Homo sapiens, UniProt P10275, T878A); assay: AR protein degradation in LNCaP cells (Western blotting); type: cell-based; conditions: for % AR protein degradation in LNCaP Cells: treatment time 6 h, average of three independent experiments
# T1 construct: The percent AR protein degradation induced by these compounds at various concentrations in LNCaP cells; host or cells: LNCaP
# T1 sequence (P10275 1-920 T878A): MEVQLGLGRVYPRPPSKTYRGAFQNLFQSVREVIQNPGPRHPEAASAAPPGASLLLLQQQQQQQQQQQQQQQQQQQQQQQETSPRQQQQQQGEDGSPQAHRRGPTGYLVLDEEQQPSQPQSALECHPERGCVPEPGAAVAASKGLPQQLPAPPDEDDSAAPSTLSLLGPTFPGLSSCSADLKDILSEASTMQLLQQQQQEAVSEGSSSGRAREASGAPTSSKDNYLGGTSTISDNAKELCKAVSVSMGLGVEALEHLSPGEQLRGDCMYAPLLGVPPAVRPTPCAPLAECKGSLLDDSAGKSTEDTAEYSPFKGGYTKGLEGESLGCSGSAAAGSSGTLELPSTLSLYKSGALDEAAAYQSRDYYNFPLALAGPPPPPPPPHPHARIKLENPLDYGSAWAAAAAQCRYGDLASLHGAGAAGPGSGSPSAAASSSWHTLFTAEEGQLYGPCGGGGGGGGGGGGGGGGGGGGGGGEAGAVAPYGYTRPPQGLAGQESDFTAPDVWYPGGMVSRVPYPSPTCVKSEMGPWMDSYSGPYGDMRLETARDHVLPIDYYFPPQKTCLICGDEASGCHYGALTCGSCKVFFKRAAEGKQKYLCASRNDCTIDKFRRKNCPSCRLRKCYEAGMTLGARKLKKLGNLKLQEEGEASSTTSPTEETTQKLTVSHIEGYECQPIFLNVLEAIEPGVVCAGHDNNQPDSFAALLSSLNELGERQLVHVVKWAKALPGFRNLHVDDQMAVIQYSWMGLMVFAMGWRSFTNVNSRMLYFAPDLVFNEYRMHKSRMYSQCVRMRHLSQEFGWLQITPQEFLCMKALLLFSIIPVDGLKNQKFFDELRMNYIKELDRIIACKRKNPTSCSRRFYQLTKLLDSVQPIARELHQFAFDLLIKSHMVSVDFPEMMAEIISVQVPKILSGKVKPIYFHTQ
# How it was run: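 LNCaP cells were cultured with 10% FBS at 37° C and lysed in RIPA buffer after treatment. AR levels were measured by Western blot. Degradation percentage was quantified by densitometry as the background-corrected AR band relative to the loading control.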
# LNCaP cells = assay: Cell growth inhibition in LNCaP cells (WST-8 assay); type: cell-based
# Experimental: LNCaP were treated with different compounds in charcoal stripped medium in the presence of 0.1 nM of AR agonist R1881 for 7 days. Cell viability was determined by a WST-8 assay.
# Cell lines and Cell Culture: All the LNCaP, VCaP and 22RV1 cells used were purchased from American Type Culture Collection (ATCC). LNCaP and 22RV1 cells were grown in RPMI 1640 (Invitrogen), VCaP cells were grown in DMEM with Glutamax (Invitrogen). All of the cells were supplemented with 10% fetal bovine serum (Invitrogen) at 37° C. in a humidified 5% CO2 incubator.
smiles,measurement,setting,value
"Cc1ncsc1-c1ccc([C@H](CC(=O)N2CCC(N3CCC(C#Cc4ccc(C(=O)NC5C(C)(C)C(Oc6ccc(C#N)c(Cl)c6)C5(C)C)cc4)CC3)CC2)NC(=O)[C@@H]2C[C@@H](O)CN2C(=O)[C@@H](NC(=O)C2(F)CC2)C(C)(C)C)cc1 (stereo partly drawn) [Compound 34, (2S,4R)—N—((S)-3-(4-((4-(((1r,3r)-3-(3-Chloro-4-cyanophenoxy)-2,2,4,4-tetramethyl-cyclobutyl)carbamoyl)phenyl)ethynyl)-[1,4′-bipiperidin]-1′-yl)-1-(4-(4-methylthiazol-5-yl)phenyl)-3-oxopropyl)-1-((S)-2-(1-fluorocyclopropane-1-carboxamido)-3,3-dimethylbutanoyl)-4-hydroxypyrrolidine-2-carboxamide]",% AR protein degradation in LNCaP Cells,AR protein; 0.01 μM,89%
same,% AR protein degradation in LNCaP Cells,AR protein; 0.1 μM,99%
same,% AR protein degradation in LNCaP Cells,AR protein; 1 μM,100%
same,AR degradation,"AR protein; LNCaP, 10 nM, 24 h treatment",> 95%
same,Time to effective reduction of AR protein level,"AR protein; LNCaP, 100 nM",≤ 2 h
same,AR depletion with a 4 h treatment,"AR protein; LNCaP, 100 nM, 4 h",near-complete AR depletion
same,DC50,"AR protein; LNCaP, 24 h treatment, read-out: DC50 (drug concentration that results in 50% protein degradation)",860 pM
same,"AR degradation (Western blotting, dose-dependent)","AR protein; LNCaP, at 10 nM",partial AR degradation
same,"AR degradation (Western blotting, dose-dependent)","AR protein; LNCaP, at both 100 nM and 1 μM",essentially complete AR degradation
same,"Rank as AR degrader among 32, 34 and 35","AR protein; LNCaP, based upon the data obtained at 10 nM",most potent
same,"AR degradation after pretreatment with AR antagonist (6), VHL-d, MLN4924 or MG132","AR protein; LNCaP, data not shown",effectively blocked
same,Potency relative to enzalutamide (4) and compound 6 in cell growth inhibition,LNCaP cells,> 100 times
same,IC50,"LNCaP cells; charcoal stripped medium, 0.1 nM R1881, 7 days",250 pM
